Test results from patent publication US20070293485A1, “DRUG ADMINISTRATION METHODS” (priority 2006, published 2007).
“Also recorded” adds a separate entry of the source.

How the values were obtained:
[1] = tested on: protein-rDNA quadruplex interaction; assay: Inhibition of rRNA biogenesis in cancer cells; assay type: cell-based
[2] = tested on: advanced solid tumors or lymphomas; assay: Phase I study, one or two hour infusion: response by RECIST, disease stabilization; assay type: in vivo, human
Procedure: (§1) Eligible patients with advanced solid tumors or lymphomas whose tumors had progressed on, or for whom there are no standard therapies, receive Compound A in successive dose cohorts at: 10, 20, 40, 80 and 160 mg/m^2. Dosing is by one or two hour intravenous infusion daily for five consecutive days repeated on a three week cycle. […] Response by RECIST is determined after every 2 cycles.

Drug resistance in vitro = assay type: cell-based
human blood cells [3] = assay: Wash off of bound drug from blood cells with fresh plasma; assay type: in vitro ADME; settings: one, two and four washes
Procedure: (§2) To test if this binding also occurs with human blood cells, an in vitro experiment was conducted with human whole blood spiked with Compound A concentrations of 1, 5, 10, and 50 μM. […] Results of the analysis of whole blood and plasma are illustrated in FIG. 7. The permanence of the binding was studied by attempting to “wash off” bound drug with fresh plasma. […] This reversible binding to blood cells is the reason for the observed extended plasma terminal half life. The ability of fresh plasma to wash off Compound A from blood cells after one, two and four washes is illustrated in FIGS. 8, 9, and 10, respectively.

human blood cells [4] = assay: Human whole blood spiked with Compound A in vitro: binding to blood cells; assay type: in vitro ADME
Procedure: as §2

malignant cells = assay: Apoptosis in malignant cells in vitro; assay type: cell-based
xenograft tumor = assay: Xenograft tumor growth models (preclinical); assay type: in vivo
[5] = Phase I study: pharmacokinetics in plasma, whole blood and urine of patients; assay type: in vivo, human
Description: Analysis has determined that Compound A whole blood concentration is nearly ten times that of plasma concentration. The reversible binding and subsequent slow release of Compound A from blood cells provides a “reservoir” effect to extend the Compound A plasma terminal half life. Further details of these observations are described in an Example that follows. This pharmacokinetic property allows consideration of a less frequent dosing schedule, and a phase I study of weekly intravenous Compound A administration is being implemented.
Pharmacokinetic analyses of plasma samples collected on Day 1 and Day 5 of dosing for every patient were performed in cohort batches during the conduct of the phase I study of Compound A in refractory solid tumors and lymphomas (Protocol C3-05-001). […] Saturation of elimination was an unlikely cause of the extended half life because there was no apparent accumulation of drug in plasma.
The pharmacokinetic sampling procedure in the phase I clinical trial was amended to allow for whole blood and plasma to be collected from study patients. When these samples were analyzed, the binding of Compound A to blood cells was again evident.

[6] = tested on: patients with advanced solid tumors; assay: Phase I study, daily intravenous infusion (one to six hours) on first five days of a three week cycle: adverse events, DLT, MTD; assay type: in vivo
Description: Compound A is designed to inhibit over-expressed ribosomal RNA synthesis in cancer cells by disrupting an essential protein-rDNA quadruplex complex thereby inducing selective apoptosis. A Phase I clinical trial for Compound A has been undertaken to determine the dose limiting toxicities (DLTs), maximum tolerated dose (MTD) and pharmacokinetics (PK) of this agent with administration by infusion for about six hours per day.
(§3) Eligible patients with advanced solid tumors received Compound A in successive dose cohorts at: 10, 20, 40, 80, 160, 240, 360 and 480 mg/m^2. Drug is administered by daily intravenous infusion on the first five consecutive days of a three week cycle and the infusion duration has varied from one hour to six hours. Response by RECIST is determined after every 2 cycles.

[7] = Phase I study, one or two hour infusion: plasma pharmacokinetics; assay type: in vivo, human
Procedure: The objectives of the study described hereafter are to determine the maximum tolerated dose (MTD) and dose limiting toxicities (DLTs), to establish the pharmacokinetics (PKs), and to determine the recommended dose for further clinical development of Compound A.
as §1

[8] = tested on: patients with advanced solid tumors or lymphomas; assay: Phase I study, one or two hour intravenous infusion daily for five consecutive days on a three week cycle: adverse events, DLT, MTD; assay type: in vivo
Procedure: Dosing is by one or two hour intravenous infusion daily for five consecutive days repeated on a three week cycle. […] Response by RECIST is determined after every 2 cycles.

advanced solid tumors = assay: Phase I study, infusion up to six hours: response by RECIST, disease stabilization; assay type: in vivo, human
Procedure: as §3

CN1CCCC1CCNC(=O)c1cn2c3c(c(N4CCC(c5cnccn5)C4)c(F)cc3c1=O)Oc1cc3ccccc3cc1-2 (stereo not drawn) [Compound A]
effect on rRNA biogenesis [1]: directly inhibits aberrant rRNA biogenesis | longest period of stable disease to date ([2]; 10-160 mg/m^2): 24 weeks | patients with disease stabilization of longer than / at least four months ([2]; 10-160 mg/m^2, 21 patients): three | patients with stable disease (SD) at evaluation following two cycles ([2]; 10-160 mg/m^2, 21 patients): Six | objective tumor responses ([2]; 10-160 mg/m^2, 21 patients, RECIST after every 2 cycles): No objective tumor responses | median duration of disease stabilization ([2]; six patients with stable disease): 14 weeks | drug resistance (Drug resistance in vitro): no drug resistance has been observed | permanence of binding to blood cells (human blood cells [3]): easily reversible | saturability of binding to human blood cells (human blood cells [4]; even at 50 μM): not saturable | binding to human blood cells (human blood cells [4]; human whole blood spiked with 1, 5, 10, and 50 μM): concentration dependent binding | induction of apoptosis (malignant cells): rapidly induces selective apoptosis | suppression of xenograft tumor growth (xenograft tumor): potency in suppressing xenograft tumor growth with a broad therapeutic window | urinary clearance rate ([5]; calculated from a 12-hour quantitative urine collection): 10 % of the glomerular filtration rate | plasma terminal half life, trend ([5]; patients, Day 5 vs Day 1 and dose escalation): increase with repeated dosing and with each dose level escalation | saturability of blood cell binding ([5]; patients, comparing Day 1 and Day 5): did not appear to be saturable | whole blood concentration relative to plasma concentration ([5]; patients, on Day 1 and on Day 5): approximately ten | accumulation in plasma concentration ([5]; patients, repeated dosing): without significant accumulation | binding to blood cells ([5]; patients, whole blood and plasma specimens): bind reversibly to blood cells | route of elimination ([5]; urine): eliminated unchanged in urine | MTD ([6]; daily iv infusion x5 days, three week cycle, infusion up to six hours): 360 mg/m^2 | tolerability ([6]; in vivo): well tolerated | linearity of PK parameters (AUC) with dose level ([7]; day 1 of dosing, dose cohorts 10-160 mg/m^2): linearity; also recorded: linear pharmacokinetic behavior | half-life ([7]; human, plasma, intravenous, following the first dose (day 1), across all dose levels 10-160 mg/m^2, read-out: plasma terminal half life (converted)): ~10 h | maximum plasma concentration (Cmax), effect of extending infusion ([7]; infusion extended to 2 hours at 160 mg/m^2): decreased | tolerability of doses ([8]; 10, 20, 40, 80 and 160 mg/m^2, one or two hour iv infusion daily x5, three week cycle, 21 patients): well tolerated | drug-related serious adverse events ([8]; 10-160 mg/m^2): No drug-related serious adverse events | grade 3 adverse events deemed related to Compound A ([8]; 10-160 mg/m^2, 21 patients): none | grade 3 adverse events reported during the study ([8]; 10-160 mg/m^2, 21 patients): nine | severity of adverse events deemed at least possibly related to drug ([8]; all studied dose levels 10-160 mg/m^2): grade 1 or 2 | maximum tolerated dose (MTD) ([8]; highest dose 160 mg/m^2, one or two hour infusion): not yet been defined | cough during infusion ([8]; one-hour infusion, 160 mg/m^2, resolved spontaneously upon completion of infusion): transient grade 1 cough | cough after extending the infusion duration ([8]; two hour infusion, 160 mg/m^2): the cough resolved | dose limiting toxicities ([8]; up to 160 mg/m^2): no observations to date of dose limiting toxicities | duration of stable disease (advanced solid tumors; 10 mg/m^2, one patient with prostate cancer): six | duration of stable disease (advanced solid tumors; 160 mg/m^2 (internal dose escalation from 80 mg/m2), one patient with anorectal cancer): twelve | duration of stable disease (advanced solid tumors; 160 mg/m^2, one patient with liposarcoma): six | cycles completed, patient remains on-study (advanced solid tumors; 240 mg/m^2 (internal dose escalation from 40 mg/m^2), one patient with neuroendocrine islet cell cancer of the pancreas): 26 cycles | patients with stable disease for longer than four months (advanced solid tumors; 42 patients, 10-480 mg/m^2): Four | patients with disease stabilization for longer than one year (advanced solid tumors; 42 patients, continuing on study): one
